Assays:
[1] = Ex vivo SPECT-CT imaging and radioactivity measurements (gamma spectroscopy) of dissected cochleae and body tissues; format: in vivo, CBA/CaJ mice
Description: For further confirmation, a pair of cochleae from a single mouse were dissected and ex vivo measurements (SPECT-CT image and radioactivity measurements-gamma spectroscopy) were carried out. […] Mean intensity and total photons were calculated from both the cochleae SPECT images. […] Moreover, energy spectra were measured using a BioDEx ion chamber and both cochleae had the same spectra, with the peak energy around 68 KeV—same as ^201Tl energy peak (FIG. 6e). These ex vivo measurements further confirm the equal distribution of ^201Tl for both inner ears.
In addition, the radiation signal was measured from various body parts, in comparison to the cochlea. The measurements were calculated per gm of tissue (specific activity) to make comparisons among various tissues and specific activities were further normalized with brain specific activity.
At the end of the imaging session, animals were sacrificed and ex vivo experiments were carried out in which radiation signals were measured from various body regions, including the brain and cochlea. A pair of cochleae were dissected and ex vivo measurements were done using both SPECT-CT imaging as well as radioactivity measurements (BioDex 500 ion chamber; gamma spectroscopy). Images were reconstructed from SPECT-CT data as per the same algorithms and protocols used for the in-vivo experiments.

[2] = In vivo SPECT-CT imaging after intravenous tail vein injection of 201Tl; design: species or system CBA/CaJ mice
Description: To test whether or not 201Tl can pass through the cochlear intrastrial fluid blood barrier, so as to image K^+ in a bony structure like the cochlea using SPECT techniques, in vivo experiments were performed with CBA/CaJ mice. Young adult mice were injected with TlCl radioactive solution intravenously with a dose of ˜400 μCi/animal in the tail vein. The Siemens Inveon® multimodality microPET/SPECT/CT platform was used (mouse brain pinhole collimator with a total of 12 projections) to image the brain, cochlea and whole body. CT imaging was also carried out for anatomical referencing. […] One animal was imaged for five continuous days, and as expected, the SPECT signal decreased over that time period in the cochlea and other body parts.
The region of interest (ROI) was drawn for the cochlea using anatomical images from the CT scans. Similarly, radiation signals (mean image intensity) from the two sides (left and right cochleae) were equal (FIG. 4b), indicating symmetrical absorption of the ^201Tl for the peripheral auditory system (cochlea). […] This observation (^201Tl maximum accumulation in the kidney) was consistent with the reported literature as ^201Tl is known to maximally accumulate there 17,18
After baseline phantom in vitro experiments were completed, in vivo imaging experiments were conducted using young adult CBA/CaJ mice (2-3 months old, n=6, 3 females and 3 males) to determine whether 201Tl can pass through the cochlear intrastrial fluid/blood barrier and if the bony cochlea can be imaged using SPECT. Each mouse was injected with approximately 400 μCi ^201Tl radiation into tail veins through a catheter. Similar to the in vitro phantom experiments, a total of 12 projections over a 360 arc were used to collect the images. During the imaging data collection, animals were under gas anesthesia (1-2% isoflurane) in an air-warmed imaging chamber (Harvard Apparatus, Cambridge, MA) to keep body temperature constant at 37° C., and the breathing rate and pattern were continuously monitored. For anatomical referencing of the cochlea, CT imaging was also conducted in conjunction with SPECT. The region of Interest (ROI) was drawn with the help of the CT referencing. Images were reconstructed using maximum-likely-hood expectation maximization (MLEM) algorithm, and finally, 3-D images were reconstructed with scattering and attenuation corrections.

[Cl][201Tl] [^201Tl, Thallium-201]
Mean intensity and total photons, cochlea 1 vs cochlea 2 ([1]; ex vivo SPECT-CT of a dissected pair of cochleae from a single mouse): no quantitative difference
Specific activity (per gm of tissue, normalized to brain) of the cochlea compared with other body parts ([1]; ex vivo radioactivity measurements): highest signal among most body parts, except kidney
Cochlear radioactivity signal relative to brain ([1]; ex vivo, gamma spectroscopy of body tissues): 2.2 times
Sex difference in cochlear SPECT signal (mean image intensity) ([2]; 3 males vs 3 females): no sex difference
Time after injection at which SPECT radiation signals were observed from the cochlea ([2]; first scan after i.v. injection): within minutes
Radiation signals (mean image intensity), left vs right cochleae ([2]; in vivo SPECT): equal
Average cochlear SPECT signal relative to brain signal ([2]; in vivo SPECT, ROI drawn with CT, ~400 μCi/animal i.v. tail vein): about two
Entry of the radiotracer into the bony cochlea ([2]; in vivo SPECT-CT of mouse cochlea): can enter the bony cochlea
Change of SPECT signal in the cochlea and other body parts over time ([2]; one animal imaged for five continuous days): decreased
Site of maximum accumulation, whole body SPECT imaging ([2]; whole body SPECT, ~400 μCi/animal i.v.): kidney

— patent US12433549B1, “Molecular imaging of the cochlea” (University of South Florida, priority 2023, dated 2025)
